Test results taken from patent publication US12077503B2, “Substituted cyclic amides and their use as herbicides” (FMC CORPORATION, priority 2015, dated 2024).

Tests used:
Test in all cases: Test C preemergence
Format in all cases: in vivo
[1] = tested on: Galium (catchweed bedstraw, Galium aparine); conditions: for Plant response rating, Galium: scale 0 to 100, 0 no effect, 100 complete control
How it was run: (§1)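 Seeds in loam-sand soil treated preemergence, or plants in peat-based medium sprayed postemergence at 2–18 cm (1- to 4-leaf stage), with compound in a non-phytotoxic solvent mixture containing surfactant. Greenhouse-held 13–15 d, then visually rated against controls on a 0–100 scale (0 = no effect, 100 = complete control); dash = not tested.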

[2] = tested on: barnyardgrass (Echinochloa crus-galli); conditions: for Plant response rating, Barnyardgrass: scale 0 to 100, 0 no effect, 100 complete control
How it was run: as §1

[3] = tested on: blackgrass (Alopecurus myosuroides); conditions: for Plant response rating, Blackgrass: scale 0 to 100, 0 no effect, 100 complete control
How it was run: as §1

[4] = tested on: corn (Zea mays); conditions: for Plant response rating, Corn: scale 0 to 100, 0 no effect, 100 complete control
How it was run: as §1

[5] = tested on: crabgrass, large (large crabgrass, Digitaria sanguinalis); conditions: for Plant response rating, Crabgrass, Large: scale 0 to 100, 0 no effect, 100 complete control
How it was run: as §1

[6] = tested on: foxtail, giant (giant foxtail, Setaria faberii); conditions: for Plant response rating, Foxtail, Giant: scale 0 to 100, 0 no effect, 100 complete control
How it was run: as §1

[7] = tested on: johnsongrass (Sorghum halepense); conditions: for Plant response rating, Johnsongrass: scale 0 to 100, 0 no effect, 100 complete control
How it was run: as §1

[8] = tested on: lambsquarters (Chenopodium album); conditions: for Plant response rating, Lambsquarters: scale 0 to 100, 0 no effect, 100 complete control
How it was run: as §1

[9] = tested on: morningglory (Ipomoea coccinea); conditions: for Plant response rating, Morningglory: scale 0 to 100, 0 no effect, 100 complete control
How it was run: as §1

[10] = tested on: nutsedge, yellow (yellow nutsedge, Cyperus esculentus); conditions: for Plant response rating, Nutsedge, Yellow: scale 0 to 100, 0 no effect, 100 complete control
How it was run: as §1

[11] = tested on: oilseed rape (Brassica napus); conditions: for Plant response rating, Oilseed Rape: scale 0 to 100, 0 no effect, 100 complete control
How it was run: as §1

[12] = tested on: ragweed (common ragweed, Ambrosia elatior); conditions: for Plant response rating, Ragweed: scale 0 to 100, 0 no effect, 100 complete control
How it was run: as §1

[13] = tested on: ryegrass, Italian (Italian ryegrass, Lolium multiflorum); conditions: for Plant response rating, Ryegrass, Italian: scale 0 to 100, 0 no effect, 100 complete control
How it was run: as §1

[14] = tested on: soybean (Glycine max); conditions: for Plant response rating, Soybean: scale 0 to 100, 0 no effect, 100 complete control
How it was run: as §1

[15] = tested on: velvetleaf (Abutilon theophrasti); conditions: for Plant response rating, Velvetleaf: scale 0 to 100, 0 no effect, 100 complete control
How it was run: as §1

[16] = tested on: waterhemp (common waterhemp, Amaranthus rudis); conditions: for Plant response rating, Waterhemp: scale 0 to 100, 0 no effect, 100 complete control
How it was run: as §1

[17] = tested on: wheat (winter wheat, Triticum aestivum); conditions: for Plant response rating, Wheat: scale 0 to 100, 0 no effect, 100 complete control
How it was run: as §1

[18] = 31 g ai/ha, 0 is no effect, 100 is complete control

O=C1NCC(c2cccc(OC(F)(F)C(F)F)c2)C1C(=O)Nc1cccc(F)c1F (racemic) [Compound 697]
Plant response rating (scale of 0 to 100), Galium [1, 18]: 0
Plant response rating, Galium ([1]; 62 g ai/ha): 85
Plant response rating, Galium ([1]; 125 g ai/ha): 85
Plant response rating, Galium ([1]; 250 g ai/ha): 90
Plant response rating (scale of 0 to 100), Barnyardgrass [2, 18]: 85
Plant response rating, Barnyardgrass ([2]; 62 g ai/ha): 90
Plant response rating, Barnyardgrass ([2]; 125 g ai/ha): 90
Plant response rating, Barnyardgrass ([2]; 250 g ai/ha): 90
Plant response rating (scale of 0 to 100), Blackgrass [3, 18]: 70
Plant response rating, Blackgrass ([3]; 62 g ai/ha): 75
Plant response rating, Blackgrass ([3]; 125 g ai/ha): 90
Plant response rating, Blackgrass ([3]; 250 g ai/ha): 90
Plant response rating (scale of 0 to 100), Corn [4, 18]: 40
Plant response rating, Corn ([4]; 62 g ai/ha): 65
Plant response rating, Corn ([4]; 125 g ai/ha): 80
Plant response rating, Corn ([4]; 250 g ai/ha): 75
Plant response rating (scale of 0 to 100), Crabgrass, Large [5, 18]: 90
Plant response rating, Crabgrass, Large ([5]; 62 g ai/ha): 95
Plant response rating, Crabgrass, Large ([5]; 125 g ai/ha): 90
Plant response rating, Crabgrass, Large ([5]; 250 g ai/ha): 95
Plant response rating (scale of 0 to 100), Foxtail, Giant [6, 18]: 85
Plant response rating, Foxtail, Giant ([6]; 62 g ai/ha): 85
Plant response rating, Foxtail, Giant ([6]; 125 g ai/ha): 90
Plant response rating, Foxtail, Giant ([6]; 250 g ai/ha): 90
Plant response rating (scale of 0 to 100), Johnsongrass [7, 18]: 70
Plant response rating, Johnsongrass ([7]; 62 g ai/ha): 75
Plant response rating, Johnsongrass ([7]; 125 g ai/ha): 85
Plant response rating, Johnsongrass ([7]; 250 g ai/ha): 85
Plant response rating (scale of 0 to 100), Lambsquarters [8, 18]: 35
Plant response rating, Lambsquarters ([8]; 62 g ai/ha): 40
Plant response rating, Lambsquarters ([8]; 125 g ai/ha): 65
Plant response rating, Lambsquarters ([8]; 250 g ai/ha): 60
Plant response rating (scale of 0 to 100), Morningglory [9, 18]: 10
Plant response rating, Morningglory ([9]; 62 g ai/ha): 10
Plant response rating, Morningglory ([9]; 125 g ai/ha): 25
Plant response rating, Morningglory ([9]; 250 g ai/ha): 30
Plant response rating (scale of 0 to 100), Nutsedge, Yellow [10, 18]: 0
Plant response rating, Nutsedge, Yellow ([10]; 62 g ai/ha): 0
Plant response rating, Nutsedge, Yellow ([10]; 125 g ai/ha): 0
Plant response rating, Nutsedge, Yellow ([10]; 250 g ai/ha): 0
Plant response rating (scale of 0 to 100), Oilseed Rape [11, 18]: 20
Plant response rating, Oilseed Rape ([11]; 62 g ai/ha): 70
Plant response rating, Oilseed Rape ([11]; 125 g ai/ha): 80
Plant response rating, Oilseed Rape ([11]; 250 g ai/ha): 85
Plant response rating (scale of 0 to 100), Ragweed [12, 18]: 60
Plant response rating, Ragweed ([12]; 62 g ai/ha): 80
Plant response rating, Ragweed ([12]; 125 g ai/ha): 80
Plant response rating, Ragweed ([12]; 250 g ai/ha): 80
Plant response rating (scale of 0 to 100), Ryegrass, Italian [13, 18]: 15
Plant response rating, Ryegrass, Italian ([13]; 62 g ai/ha): 55
Plant response rating, Ryegrass, Italian ([13]; 125 g ai/ha): 45
Plant response rating, Ryegrass, Italian ([13]; 250 g ai/ha): 50
Plant response rating (scale of 0 to 100), Soybean [14, 18]: 0
Plant response rating, Soybean ([14]; 62 g ai/ha): 10
Plant response rating, Soybean ([14]; 125 g ai/ha): 0
Plant response rating, Soybean ([14]; 250 g ai/ha): 10
Plant response rating (scale of 0 to 100), Velvetleaf [15, 18]: 0
Plant response rating, Velvetleaf ([15]; 62 g ai/ha): 25
Plant response rating, Velvetleaf ([15]; 125 g ai/ha): 65
Plant response rating, Velvetleaf ([15]; 250 g ai/ha): 35
Plant response rating (scale of 0 to 100), Waterhemp [16, 18]: 80
Plant response rating, Waterhemp ([16]; 62 g ai/ha): 80
Plant response rating, Waterhemp ([16]; 125 g ai/ha): 85
Plant response rating, Waterhemp ([16]; 250 g ai/ha): 85
Plant response rating (scale of 0 to 100), Wheat [17, 18]: 0
Plant response rating, Wheat ([17]; 62 g ai/ha): 0
Plant response rating, Wheat ([17]; 125 g ai/ha): 10
Plant response rating, Wheat ([17]; 250 g ai/ha): 35
